Reference: US7927624B2, “Hydrophilic/lipophilic polymeric matrix dosage formulation” (Jagotec AG, priority 2000, dated 2011)
Converted amounts (≈) assume the structure as drawn.

Assay: physchem
Details: water

CCCN(CCC)CCc1cccc2c1CC(=O)N2 [ropinirole, Ropinirole]
solubility: 133 mg/mL (≈ 511 mM)
